Source: patent publication US20130119363A1, “FLUORINE-CONTAINING AROMATIC COMPOUND, ORGANIC SEMICONDUCTOR MATERIAL AND ORGANIC THIN FILM DEVICE” (ASAHI GLASS COMPANY, LIMITED, priority 2010, published 2013)

Assay: Evaluation of coating properties (orthodichlorobenzene solution, spin coating)
Assay type: physicochemical
Settings: one mass % orthodichlorobenzene solution, filtered through a PTFE filter, spin coated on silicon substrate; thin film formed
Description: One mass % of orthodichlorobenzene solution of the fluorine-containing aromatic compound (II) obtained by the synthesis example (1-1) was prepared. The obtained solution was filtered with a PTFE (polytetrafluoroethylene) filter of which thickness was 0.45 μm, and thereafter, it was coated on a silicon substrate by the spin coating. A coating condition was 1500 rotations per minute for 30 seconds. Next, the silicon substrate was placed on the hot plate, and heated at 150° C. for 90 seconds. After that, a film thickness of a compound (II) layer formed on the silicon substrate was measured by using an AFM (atomic force microscope), and it was 70 nm.
One mass % of orthodichlorobenzene solution of the fluorine-containing aromatic compound (12) obtained by the synthesis example (2-1) was prepared. The obtained solution was filtered with the PTFE (polytetrafluoroethylene) filter of which thickness was 0.45 μm, and thereafter, it was coated on the silicon substrate by the spin coating. The coating condition was 1500 rotations per minute for 30 seconds. Next, the silicon substrate was placed on the hot plate, and the heating process was performed at 120° C. for 120 seconds. After that, a film thickness of a compound (12) layer formed on the silicon substrate was measured by using the AFM (atomic force microscope), and it was 80 nm.
One mass % of orthodichlorobenzene solution of the fluorine-containing aromatic compound (13) obtained by the synthesis example (3-1) was prepared. The obtained solution was filtered with the PTFE (polytetrafluoroethylene) filter of which thickness was […], and thereafter, it was coated on the silicon substrate by the spin coating. The coating condition was 1500 rotations per minute for 30 seconds. Next, the silicon substrate was placed on the hot plate, and heated at 120° C. for 120 seconds. After that, a film thickness of a fluorine-containing aromatic compound (13) layer formed on the silicon substrate was measured by using the AFM (atomic force microscope), and it was 90 nm.

| SMILES | solubility for general solvents |
| --- | --- |
| CCCCCCOc1c(F)c(F)c2c(F)c(C#Cc3ccc4cc(C#Cc5c(F)c(F)c6c(F)c(OCCCCCC)c(F)c(F)c6c5F)ccc4c3)c(F)c(F)c2c1F [Compound (11), 2,6-bis((6-hexyloxyhexafluoronaphthalene-2-yl)ethynyl)naphthalene] | good solubility |
| CCCCCCOc1c(F)c(F)c(C#Cc2ccc3cc(C#Cc4c(F)c(F)c(OCCCCCC)c(F)c4F)ccc3c2)c(F)c1F [Compound (12), 2,6-bis((4-hexyloxytetrafluorophenyl)ethynyl)naphthalene] | good solubility |
| CCCCCCOc1c(F)c(F)c(C#Cc2ccc(-c3ccc(-c4ccc(C#Cc5c(F)c(F)c(OCCCCCC)c(F)c5F)s4)s3)s2)c(F)c1F [Compound (13), 5,5″-bis((4-hexyloxytetrafluorophenyl)ethynyl)-2.2°: 5,2″-terthiophene] | good solubility |
